ChEMBL document CHEMBL4229379, “Synthesis and structure-activity relationship of novel bisindole amidines active against MDR Gram-positive and Gram-negative bacteria” (Eur J Med Chem, 2018)
In brackets after ≈: the same amount, converted by molar mass.

How the values were obtained:
[1] = tested on: Staphylococcus epidermidis; test: Antibacterial activity against methicillin-sensitive Staphylococcus epidermidis ATCC 12228 after 18 hrs by CLSI broth microdilution method; type: functional; details: ATCC 12228, 18 h
[2] = tested on: Staphylococcus epidermidis; test: Antibacterial activity against methicillin-resistant Staphylococcus epidermidis 12-8 after 18 hrs by CLSI broth microdilution method; type: functional; details: 12-8, 18 h
Staphylococcus aureus [3] = test: Antibacterial activity against methicillin-sensitive Staphylococcus aureus ATCC 29213 after 18 hrs by CLSI broth microdilution method; type: functional; details: ATCC 29213, 18 h
Staphylococcus aureus [4] = test: Antibacterial activity against methicillin-resistant Staphylococcus aureus 12-33 after 18 hrs by CLSI broth microdilution method; type: functional; details: 12-33, 18 h
Enterococcus faecalis [5] = test: Antibacterial activity against vancomycin-sensitive Enterococcus faecalis ATCC 29212 after 18 hrs by CLSI broth microdilution method; type: functional; details: ATCC 29212, 18 h
Enterococcus faecalis [6] = test: Antibacterial activity against vancomycin-resistant Enterococcus faecalis 09-9 after 18 hrs by CLSI broth microdilution method; type: functional; details: 09-9, 18 h
Enterococcus faecium [7] = test: Antibacterial activity against vancomycin-resistant Enterococcus faecium ATCC 700221 after 18 hrs by CLSI broth microdilution method; type: functional; details: ATCC 700221, 18 h
Enterococcus faecium [8] = test: Antibacterial activity against vancomycin-sensitive Enterococcus faecium 12-3 after 18 hrs by CLSI broth microdilution method; type: functional; details: 12-3, 18 h
Escherichia coli [9] = test: Antibacterial activity against extended-spectrum beta-lactamase deficient Escherichia coli ATCC 25922 after 18 hrs by CLSI broth microdilution method; type: functional; details: ATCC 25922, 18 h
Escherichia coli [10] = test: Antibacterial activity against extended-spectrum beta-lactamase harboring Escherichia coli 12-15 after 18 hrs by CLSI broth microdilution method; type: functional; details: 12-15, 18 h
Klebsiella pneumoniae [11] = test: Antibacterial activity against extended-spectrum beta-lactamase harboring Klebsiella pneumoniae ATCC 700603 after 18 hrs by CLSI broth microdilution method; type: functional; details: Klebsiella pneumoniae, 700603, 18 h
Klebsiella pneumoniae [12] = test: Antibacterial activity against new delhi metallo-beta-lactamase-1 harboring Klebsiella pneumoniae ATCC BAA-2146 after 18 hrs by CLSI broth microdilution method; type: functional; details: ATCC BAA-2146, 18 h
Klebsiella pneumoniae [13] = test: Antibacterial activity against extended-spectrum beta-lactamase harboring Klebsiella pneumoniae 12-8 after 18 hrs by CLSI broth microdilution method; type: functional; details: 12-8, 18 h
Pseudomonas aeruginosa [14] = test: Antibacterial activity against Pseudomonas aeruginosa ATCC 27853 after 18 hrs by CLSI broth microdilution method; type: functional; details: ATCC 27853, 18 h
[15] = tested on: Acinetobacter calcoaceticus; test: Antibacterial activity against Acinetobacter calcoaceticus ATCC 19606 after 18 hrs by CLSI broth microdilution method; type: functional; details: ATCC 19606, 18 h
Enterobacter cloacae = test: Antibacterial activity against Enterobacter cloacae ATCC 43560 after 18 hrs by CLSI broth microdilution method; type: functional; details: ATCC 43560, 18 h
Proteus mirabilis = test: Antibacterial activity against Proteus mirabilis 12-6 after 18 hrs by CLSI broth microdilution method; type: functional; details: 12-6, 18 h
[16] = Cytotoxicity against HEK293T cells assessed as reduction in cell viability after 48 hrs by MTS assay; type: cell-based, HEK-293T; details: human
[17] = tested on: Staphylococcus epidermidis; test: Antibacterial activity against methicillin-sensitive Staphylococcus epidermidis 12-6 after 18 hrs by CLSI broth microdilution method; type: functional; details: 12-6, 18 h
Staphylococcus aureus [18] = test: Antibacterial activity against methicillin-resistant Staphylococcus aureus ATCC 33591 after 18 hrs by CLSI broth microdilution method; type: functional; details: ATCC 33591, 18 h
Staphylococcus aureus [19] = test: Antibacterial activity against methicillin-sensitive Staphylococcus aureus 15 after 18 hrs by CLSI broth microdilution method; type: functional; details: Staphylococcus aureus, 15, 18 h
Staphylococcus aureus [20] = test: Antibacterial activity against methicillin-sensitive Staphylococcus aureus 12-28 after 18 hrs by CLSI broth microdilution method; type: functional; details: 12-28, 18 h
Enterococcus faecalis [21] = test: Antibacterial activity against vancomycin-resistant Enterococcus faecalis ATCC 51299 after 18 hrs by CLSI broth microdilution method; type: functional; details: ATCC 51299, 18 h
Enterococcus faecalis [22] = test: Antibacterial activity against vancomycin-sensitive Enterococcus faecalis 12-5 after 18 hrs by CLSI broth microdilution method; type: functional; details: 12-5, 18 h
Enterococcus faecium [23] = test: Antibacterial activity against vancomycin-resistant Enterococcus faecium 12-1 after 18 hrs by CLSI broth microdilution method; type: functional; details: 12-1, 18 h
Escherichia coli [24] = test: Antibacterial activity against extended-spectrum beta-lactamase deficient Escherichia coli 1515 after 18 hrs by CLSI broth microdilution method; type: functional; details: Escherichia coli, 1515, 18 h
Escherichia coli [25] = test: Antibacterial activity against extended-spectrum beta-lactamase deficient Escherichia coli 12-14 after 18 hrs by CLSI broth microdilution method; type: functional; details: 12-14, 18 h
Klebsiella pneumoniae [26] = test: Antibacterial activity against extended-spectrum beta-lactamase deficient Klebsiella pneumoniae 7 after 18 hrs by CLSI broth microdilution method; type: functional; details: Klebsiella pneumoniae, 7, 18 h
Klebsiella pneumoniae [27] = test: Antibacterial activity against extended-spectrum beta-lactamase deficient Klebsiella pneumoniae 12-4 after 18 hrs by CLSI broth microdilution method; type: functional; details: 12-4, 18 h
Pseudomonas aeruginosa [28] = test: Antibacterial activity against Pseudomonas aeruginosa PAO1 after 18 hrs by CLSI broth microdilution method; type: functional; details: PAO1, 18 h
Pseudomonas aeruginosa [29] = test: Antibacterial activity against Pseudomonas aeruginosa 12-16 after 18 hrs by CLSI broth microdilution method; type: functional; details: 12-16, 18 h
Klebsiella aerogenes = test: Antibacterial activity against Enterobacter aerogenes ATCC 13048 after 18 hrs by CLSI broth microdilution method; type: functional; details: ATCC 13048, 18 h
Serratia marcescens = test: Antibacterial activity against Serratia marcescens ATCC 21074 after 18 hrs by CLSI broth microdilution method; type: functional; details: ATCC 21074, 18 h
Providencia rettgeri = test: Antibacterial activity against Providencia rettgeri ATCC 31052 after 18 hrs by CLSI broth microdilution method; type: functional; details: ATCC 31052, 18 h
Proteus vulgaris = test: Antibacterial activity against Proteus vulgaris ATCC 29905 after 18 hrs by CLSI broth microdilution method; type: functional; details: ATCC 29905, 18 h
[30] = tested on: Stenotrophomonas maltophilia; test: Antibacterial activity against Stenotrophomonas maltophilia ATCC 13636 after 18 hrs by CLSI broth microdilution method; type: functional; details: ATCC 13636, 18 h
Citrobacter freundii = test: Antibacterial activity against Citrobacter freundii ATCC 43864 after 18 hrs by CLSI broth microdilution method; type: functional; details: ATCC 43864, 18 h
Staphylococcus aureus [31] = test: Potency index, ratio of levofloxacin MIC to compound MIC for methicillin-resistant Staphylococcus aureus 12-33; type: functional
Staphylococcus aureus [32] = test: Potency index, ratio of levofloxacin MIC to compound MIC for methicillin-resistant Staphylococcus aureus ATCC 33591; type: functional
Enterococcus faecalis [33] = test: Potency index, ratio of levofloxacin MIC to compound MIC for vancomycin-resistant Enterococcus faecalis ATCC 51299; type: functional
Enterococcus faecium [34] = test: Potency index, ratio of levofloxacin MIC to compound MIC for vancomycin-resistant Enterococcus faecium ATCC 700221; type: functional
Enterococcus faecalis [35] = test: Potency index, ratio of levofloxacin MIC to compound MIC for vancomycin-resistant Enterococcus faecalis 09-9; type: functional
Enterococcus faecium [36] = test: Potency index, ratio of levofloxacin MIC to compound MIC for vancomycin-resistant Enterococcus faecium 12-1; type: functional

N=C(c1ccc2cc(-c3ccc(-c4cc5ccc(C(=N)N6CCC(N7CCCC7)CC6)cc5[nH]4)cc3)[nH]c2c1)N1CCC(N2CCCC2)CC1
MIC [1]: 4 µg/mL (≈ 6 µM) | MIC [2]: 8 µg/mL (≈ 12 µM) | MIC (Staphylococcus aureus [3]): 8 µg/mL (≈ 12 µM) | MIC (Staphylococcus aureus [4]): 8 µg/mL (≈ 12 µM) | MIC (Enterococcus faecalis [5]): 16 µg/mL (≈ 24 µM) | MIC (Enterococcus faecalis [6]): 16 µg/mL (≈ 24 µM) | MIC (Enterococcus faecium [7]): 16 µg/mL (≈ 24 µM) | MIC (Enterococcus faecium [8]): 16 µg/mL (≈ 24 µM) | MIC (Escherichia coli [9]): 8 µg/mL (≈ 12 µM) | MIC (Escherichia coli [10]): 16 µg/mL (≈ 24 µM) | MIC (Klebsiella pneumoniae [11]): 64 µg/mL (≈ 96 µM) | MIC (Klebsiella pneumoniae [12]): 32 µg/mL (≈ 48 µM) | MIC (Klebsiella pneumoniae [13]): 16 µg/mL (≈ 24 µM) | MIC (Pseudomonas aeruginosa [14]): 16 µg/mL (≈ 24 µM) | MIC [15]: > 128 µg/mL | MIC (Enterobacter cloacae): 16 µg/mL (≈ 24 µM) | MIC (Proteus mirabilis): > 128 µg/mL | CC50 at 48 h [16]: 50 µg/mL (≈ 75 µM) | MIC [17]: 8 µg/mL (≈ 12 µM) | MIC (Staphylococcus aureus [18]): 8 µg/mL (≈ 12 µM) | MIC (Staphylococcus aureus [19]): 8 µg/mL (≈ 12 µM) | MIC (Staphylococcus aureus [20]): 8 µg/mL (≈ 12 µM) | MIC (Enterococcus faecalis [21]): 32 µg/mL (≈ 48 µM) | MIC (Enterococcus faecalis [22]): 64 µg/mL (≈ 96 µM) | MIC (Enterococcus faecium [23]): 16 µg/mL (≈ 24 µM) | MIC (Escherichia coli [24]): 16 µg/mL (≈ 24 µM) | MIC (Escherichia coli [25]): 16 µg/mL (≈ 24 µM) | MIC (Klebsiella pneumoniae [26]): 16 µg/mL (≈ 24 µM) | MIC (Klebsiella pneumoniae [27]): 16 µg/mL (≈ 24 µM) | MIC (Pseudomonas aeruginosa [28]): 128 µg/mL (≈ 192 µM) | MIC (Pseudomonas aeruginosa [29]): 128 µg/mL (≈ 192 µM) | MIC (Klebsiella aerogenes): 16 µg/mL (≈ 24 µM) | MIC (Serratia marcescens): > 128 µg/mL | MIC (Providencia rettgeri): 128 µg/mL (≈ 192 µM) | MIC (Proteus vulgaris): 128 µg/mL (≈ 192 µM) | MIC [30]: 128 µg/mL (≈ 192 µM) | MIC (Citrobacter freundii): 16 µg/mL (≈ 24 µM) | Ratio (Staphylococcus aureus [31]): 4 - 128 | Ratio (Staphylococcus aureus [32]): 4 - 128 | Ratio (Enterococcus faecalis [33]): 4 - 512 | Ratio (Enterococcus faecium [34]): 4 - 512 | Ratio (Enterococcus faecalis [35]): 4 - 512 | Ratio (Enterococcus faecium [36]): 4 - 512
